According to patent US8871934B2, “Fluorene compound and pharmaceutical use thereof” (Japan Tobacco Inc., priority 2008, dated 2014):
Read-outs that look alike come from different tables or passages of the source.

Molecular target: human PDHK2 (hPDHK2) (Homo sapiens (Human), UniProt Q15119)
Assay: Inhibitory action of PDHK activity in vitro (kinase reaction, residual PDH activity measured)
Assay type: biochemical
[1] = PDHK inhibitory activity, class symbol of IC50
[2] = read-out: PDHK inhibitory activity IC50

Compound | IC50 [1] | IC50 [2]
OC1(C(F)(F)F)c2ccccc2-c2ccc(-c3ccccc3)cc21 (centres unmarked) [compound 97] | 100 to 1000 nM | 849 nM
O=C(c1ccccc1)c1ccc2c(c1)C(O)(C(F)(F)F)c1ccccc1-2 (centres unmarked) [compound 98] | > 1000 nM | 2420 nM
O=C(c1ccc2c(c1)C(O)(C(F)(F)F)c1ccccc1-2)c1cccs1 (centres unmarked) [compound 99] | 100 to 1000 nM | 718 nM
CCC(=O)Nc1ccc2c(c1)-c1ccccc1C2(O)C(F)(F)F (centres unmarked) [compound 100] | > 1000 nM | 6150 nM
CC(C)C(=O)Nc1ccc2c(c1)-c1ccccc1C2(O)C(F)(F)F (centres unmarked) [compound 101] | > 1000 nM | 10300 nM
OC1(C(F)(F)F)c2ccccc2-c2ccc(-c3cccnc3)cc21 (centres unmarked) [compound 102] | 100 to 1000 nM | 323 nM
OC1(C(F)(F)F)c2ccccc2-c2ccc(-c3ccncc3)cc21 (centres unmarked) [compound 103] | 100 to 1000 nM | 151 nM
CCOC1CN(C(=O)c2ccc3c(c2)C(O)(C(F)(F)F)c2ccccc2-3)C1 (centres unmarked) [compound 104] | 100 to 1000 nM | 279 nM
CCCOC1CN(C(=O)c2ccc3c(c2)C(O)(C(F)(F)F)c2ccccc2-3)C1 (centres unmarked) [compound 105] | 100 to 1000 nM | 259 nM
COCCOC1CN(C(=O)c2ccc3c(c2)C(O)(C(F)(F)F)c2ccccc2-3)C1 (centres unmarked) [compound 106] | 100 to 1000 nM | 461 nM
O=C(O)COC1CN(C(=O)c2ccc3c(c2)C(O)(C(F)(F)F)c2ccccc2-3)C1 (centres unmarked) [compound 107] | > 1000 nM | 2610 nM
O=C(c1ccc2c(c1)C(O)(C(F)(F)F)c1ccccc1-2)N1CC(OCCO)C1 (centres unmarked) [compound 108] | 100 to 1000 nM | 462 nM
O=C(c1ccc2c(c1)C(O)(C(F)(F)F)c1ccccc1-2)C1CCCC1 (centres unmarked) [compound 109] | > 1000 nM | 1320 nM
CC(C)Oc1ccc2c(c1)C(O)(C(F)(F)F)c1ccccc1-2 (centres unmarked) [compound 110] | > 1000 nM | 2490 nM
O=C(c1cccc2c1-c1ccccc1C2(O)C(F)(F)F)N1CC1 (centres unmarked) [compound 111] | > 1000 nM | > 10000 nM
OC1(C(F)(F)F)c2ccccc2-c2ccc(-c3ccccn3)cc21 (centres unmarked) [compound 112] | > 1000 nM | 1230 nM
OC1(C(F)(F)F)c2ccccc2-c2c(Br)cccc21 (centres unmarked) [compound 113] | > 1000 nM | 1110 nM
O=C(c1cc(Br)c2c(c1)C(O)(C(F)(F)F)c1ccccc1-2)N1CCC1 (centres unmarked) [compound 114] | < 100 nM | 51 nM
COC(=O)COC1CN(C(=O)c2ccc3c(c2)C(O)(C(F)(F)F)c2ccccc2-3)C1 (centres unmarked) [compound 115] | 100 to 1000 nM | 417 nM

Compound | IC50 [1] | IC50 [2]
NC(=O)COC1CN(C(=O)c2ccc3c(c2)C(O)(C(F)(F)F)c2ccccc2-3)C1 (centres unmarked) [compound 116] | 100 to 1000 nM | 601 nM
CNC(=O)COC1CN(C(=O)c2ccc3c(c2)C(O)(C(F)(F)F)c2ccccc2-3)C1 (centres unmarked) [compound 117] | 100 to 1000 nM | 909 nM
CN(C)C(=O)COC1CN(C(=O)c2ccc3c(c2)C(O)(C(F)(F)F)c2ccccc2-3)C1 (centres unmarked) [compound 118] | 100 to 1000 nM | 839 nM
O=C(c1ccc2c(c1)C(O)(C(F)(F)F)c1ccccc1-2)C1CCC1 (centres unmarked) [compound 119] | > 1000 nM | 1000 nM
COC(=O)C1CN(C(=O)c2ccc3c(c2)C(O)(C(F)(F)F)c2ccccc2-3)C1 (centres unmarked) [compound 120] | 100 to 1000 nM | 174 nM
O=C(O)C1CN(C(=O)c2ccc3c(c2)C(O)(C(F)(F)F)c2ccccc2-3)C1 (centres unmarked) [compound 121] | > 1000 nM | 3680 nM
CC(=O)c1cc(C(=O)N2CCC2)cc2c1-c1ccccc1C2(O)C(F)(F)F (centres unmarked) [compound 122] | < 100 nM | 49 nM
NC(=O)C1CN(C(=O)c2ccc3c(c2)C(O)(C(F)(F)F)c2ccccc2-3)C1 (centres unmarked) [compound 123] | 100 to 1000 nM | 877 nM
CNC(=O)C1CN(C(=O)c2ccc3c(c2)C(O)(C(F)(F)F)c2ccccc2-3)C1 (centres unmarked) [compound 124] | 100 to 1000 nM | 736 nM
CN(C)C(=O)C1CN(C(=O)c2ccc3c(c2)C(O)(C(F)(F)F)c2ccccc2-3)C1 (centres unmarked) [compound 125] | 100 to 1000 nM | 227 nM
OC1(C(F)(F)F)c2ccccc2-c2c(-c3ccccc3)cccc21 (centres unmarked) [compound 126] | > 1000 nM | > 10000 nM
O=C(c1ccc2c(c1)C(O)(C(F)(F)F)c1ccccc1-2)N1CCOCC1 (centres unmarked) [compound 127] | > 1000 nM | > 10000 nM
OC1(C(F)(F)F)c2ccccc2-c2ccc(OC3CCC3)cc21 (centres unmarked) [compound 128] | > 1000 nM | 2400 nM
OC1(C(F)(F)F)c2ccccc2-c2ccc(-c3cccc(F)c3)cc21 (centres unmarked) [compound 129] | 100 to 1000 nM | 864 nM
COC(=O)Nc1cccc2c1-c1ccccc1C2(O)C(F)(F)F (centres unmarked) [compound 130] | > 1000 nM | > 10000 nM
OC1(C(F)(F)F)c2ccccc2-c2c(-c3ncco3)cccc21 (centres unmarked) [compound 131] | > 1000 nM | > 10000 nM
OC1(C(F)(F)F)c2ccccc2-c2ccc(-c3cccc(Cl)c3)cc21 (centres unmarked) [compound 132] | 100 to 1000 nM | 694 nM
CN(C)C1CN(C(=O)c2ccc3c(c2)C(O)(C(F)(F)F)c2ccccc2-3)C1 (centres unmarked) [compound 133] | > 1000 nM | 2500 nM
